Starred links: 1 amine or outer side, 2 acyl side, 3 side chain; linkers in the order of their positions; H or OH if unused. Positions of bridges follow the written chain, without caps; N, C: chain ends. Non-standard residues stand in square brackets, D forms with d. Residues, ends and D or L forms follow the SMILES beside them. pY = N[C@@H](Cc1ccc(OP(=O)(O)O)cc1)C(=O)O; tBuAla = CC(C)(C)C[C@H](N)C(=O)O; X1 = O=C(C[*:2])NCCC(=O)[*:1]; hCys = N[C@@H](CCS)C(=O)O; Ac6c = NC1(C(=O)O)CCCCC1

The record followed here is ChEMBL document CHEMBL1144969, “Structure-based design of thioether-bridged cyclic phosphopeptides binding to Grb2-SH2 domain” (Bioorg Med Chem Lett, 2003).

The target of the test is Growth factor receptor-bound protein 2 (Homo sapiens, UniProt P62993). As to the kind of experiment: Inhibition of Growth factor receptor-bound protein 2 (Grb2) SH2 domain binding by ELISA. In general terms: An ELISA detects its analyte on a solid surface through an enzyme-linked reagent.
Growth factor receptor-bound protein 2, sequence (P62993 whole entry, the tested form may be a part): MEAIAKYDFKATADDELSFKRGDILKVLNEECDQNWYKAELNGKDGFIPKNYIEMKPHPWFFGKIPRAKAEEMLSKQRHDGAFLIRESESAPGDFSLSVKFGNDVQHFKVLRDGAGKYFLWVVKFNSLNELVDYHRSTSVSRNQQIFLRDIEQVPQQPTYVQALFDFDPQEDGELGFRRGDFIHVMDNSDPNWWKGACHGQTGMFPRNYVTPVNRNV
Broadly, the IC50 is the concentration at which inhibition is half-maximal. Lower therefore signals greater potency in that assay. `CSCC[C@@H]1NC(=O)CNC(=O)[C@H](C(C)C)NC(=O)[C@H](CC(N)=O)NC(=O)[C@H](CCC(=O)O)NC(=O)[C@H](Cc2ccc(OP(=O)(O)O)cc2)NC(=O)[C@H](CC(C)C)NC(=O)CCNC(=O)CSC[C@@H](C(N)=O)NC(=O)[C@H](Cc2ccc(O)cc2)NC1=O` (L[pY]ENVGMYC-NH2; linker N-9 via X1) came in with an IC50 of 8.26 nM. With `CSCC[C@@H]1NC(=O)CNC(=O)[C@H](C(C)C)NC(=O)[C@H](CC(N)=O)NC(=O)C2(CCCCC2)NC(=O)[C@H](Cc2ccc(OP(=O)(O)O)cc2)NC(=O)[C@H](CC(C)C)NC(=O)CCNC(=O)CSC[C@@H](C(N)=O)NC(=O)[C@H](Cc2ccc(O)cc2)NC1=O` (L[pY][Ac6c]NVGMYC-NH2; linker N-9 via X1) the figure was 21 nM; with `CC(C)[C@@H]1NC(=O)[C@H](CC(N)=O)NC(=O)C2(CCCCC2)NC(=O)[C@H](Cc2ccc(OP(=O)(O)O)cc2)NC(=O)[C@H](Cc2ccccc2)NC(=O)[C@H](C)NC(=O)CSC[C@@H](C(N)=O)NC(=O)[C@H](Cc2ccc(O)cc2)NC(=O)[C@H](CC(C)(C)C)NC(=O)CNC1=O` ({CH2CO}-AF[pY][Ac6c]NVG[tBuAla]YC-NH2; thioether N-10), 1.68 nM; with `CSCC[C@@H]1NC(=O)CNC(=O)[C@H](C(C)C)NC(=O)[C@H](CC(N)=O)NC(=O)[C@H](CCC(=O)O)NC(=O)[C@H](Cc2ccc(OP(=O)(O)O)cc2)NC(=O)[C@H](CC(C)C)NC(=O)[C@H](C)NC(=O)CSC[C@@H](C(N)=O)NC(=O)[C@H](Cc2ccc(O)cc2)NC1=O` ({CH2CO}-AL[pY]ENVGMYC-NH2; thioether N-10), 25.3 nM. The same measure for `CSCC[C@@H]1NC(=O)CNC(=O)[C@H](C(C)C)NC(=O)[C@H](CC(N)=O)NC(=O)[C@H](CCC(=O)O)NC(=O)[C@H](Cc2ccc(OP(=O)(O)O)cc2)NC(=O)[C@H](CC(C)C)NC(=O)[C@H](C)NC(=O)CSCC[C@@H](C(N)=O)NC(=O)[C@H](Cc2ccc(O)cc2)NC1=O` ({CH2CO}-AL[pY]ENVGMY[hCys]-NH2; thioether N-10): 54.7 nM; for `CC(C)C[C@@H]1NC(=O)[C@H](C)NC(=O)CSC[C@@H](C(N)=O)NC(=O)[C@H](Cc2ccc(O)cc2)NC(=O)[C@H](CC(C)(C)C)NC(=O)CNC(=O)[C@H](C(C)C)NC(=O)[C@H](CC(N)=O)NC(=O)[C@H](CCC(=O)O)NC(=O)[C@H](Cc2ccc(OP(=O)(O)O)cc2)NC1=O` ({CH2CO}-AL[pY]ENVG[tBuAla]YC-NH2; thioether N-10): 14.5 nM; for `CC(C)C[C@@H]1NC(=O)[C@H](C)NC(=O)CSC[C@@H](C(N)=O)NC(=O)[C@H](Cc2ccc(O)cc2)NC(=O)[C@H](C)NC(=O)CNC(=O)[C@H](C(C)C)NC(=O)[C@H](CC(N)=O)NC(=O)C2(CCCCC2)NC(=O)[C@H](Cc2ccc(OP(=O)(O)O)cc2)NC1=O` ({CH2CO}-AL[pY][Ac6c]NVGAYC-NH2; thioether N-10): 13.3 nM. With `CSCC[C@@H]1NC(=O)CNC(=O)[C@H](C(C)C)NC(=O)[C@H](CC(N)=O)NC(=O)C2(CCCCC2)NC(=O)[C@H](Cc2ccc(OP(=O)(O)O)cc2)NC(=O)[C@H](CC(C)C)NC(=O)[C@H](C)NC(=O)CSC[C@@H](C(N)=O)NC(=O)[C@H](Cc2ccc(O)cc2)NC1=O` ({CH2CO}-AL[pY][Ac6c]NVGMYC-NH2; thioether N-10) the figure was 3.77 nM; with `CSCC[C@@H]1NC(=O)CNC(=O)[C@H](C(C)C)NC(=O)[C@H](CC(N)=O)NC(=O)[C@H](CCC(=O)O)NC(=O)[C@H](Cc2ccc(OP(=O)(O)O)cc2)NC(=O)[C@H](CC(C)C)NC(=O)[C@H](CCC(=O)O)NC(=O)CSC[C@@H](C(N)=O)NC(=O)[C@H](Cc2ccc(O)cc2)NC1=O` ({CH2CO}-EL[pY]ENVGMYC-NH2; thioether N-10), 137 nM; with `CSCC[C@@H]1NC(=O)CNC(=O)[C@H](C(C)C)NC(=O)[C@H](CC(N)=O)NC(=O)[C@H](CCC(=O)O)NC(=O)[C@H](Cc2ccc(OP(=O)(O)O)cc2)NC(=O)[C@H](CC(C)C)NC(=O)CNC(=O)CSC[C@@H](C(N)=O)NC(=O)[C@H](Cc2ccc(O)cc2)NC1=O` ({CH2CO}-GL[pY]ENVGMYC-NH2; thioether N-10), 31.5 nM. `CSCC[C@@H]1NC(=O)CNC(=O)[C@H](C(C)C)NC(=O)[C@H](CC(N)=O)NC(=O)[C@H](CCC(=O)O)NC(=O)[C@H](Cc2ccc(OP(=O)(O)O)cc2)NC(=O)[C@H](CC(C)C)NC(=O)[C@@H]2CCCN2C(=O)CSC[C@@H](C(N)=O)NC(=O)[C@H](Cc2ccc(O)cc2)NC1=O` ({CH2CO}-PL[pY]ENVGMYC-NH2; thioether N-10) gave a 50% inhibitory concentration (IC50) of 75.7 nM. For `CC(C)C[C@@H]1NC(=O)[C@@H]2CCCN2C(=O)CSC[C@@H](C(N)=O)NC(=O)[C@H](Cc2ccc(O)cc2)NC(=O)[C@H](CC(C)(C)C)NC(=O)CNC(=O)[C@H](C(C)C)NC(=O)[C@H](CC(N)=O)NC(=O)C2(CCCCC2)NC(=O)[C@H](Cc2ccc(OP(=O)(O)O)cc2)NC1=O` ({CH2CO}-PL[pY][Ac6c]NVG[tBuAla]YC-NH2; thioether N-10), the IC50 came out at 7.65 nM.
